How the values were obtained:
[1] = target: T1, KRas G12D (Homo sapiens (Human), UniProt P01116, G12D); assay: KRas G12D Binding Assay (TR-FRET displacement); details: TR-FRET displacement of Cy5 labelled tracer, GDP-loaded KRAS G12D, 60 minute incubation at 22° C.
Experimental: After a 60 minute incubation at 22° C., the reaction was measured using a PerkinElmer EnVision multimode plate reader via TR-FRET dual wavelength detection, and the percent of control (POC) calculated using a ratiometric emission factor. […] The POC values were fit to a 4-parameter logistic curve and the IC50 value was determined as the concentration where the curve crosses 50 POC.
Target sequence in this assay (P01116 other isoform, or with tags, fused parts or gaps G12D): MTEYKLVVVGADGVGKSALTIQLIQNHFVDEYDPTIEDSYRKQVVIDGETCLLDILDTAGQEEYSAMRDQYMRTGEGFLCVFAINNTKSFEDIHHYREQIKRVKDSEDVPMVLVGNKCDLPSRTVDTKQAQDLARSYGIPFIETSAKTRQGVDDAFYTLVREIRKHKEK

[2] = system: KRas G12D-mediated phosphorylation of ERK; assay: Inhibition of KRas G12D-mediated phosphorylation of ERK in AGS cells; format: cell-based; details: Homo sapiens; AGS cells expressing G12D, 3 hours, phospho-ERK normalized to GAPDH
How it was run: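 Fixed, methanol-permeabilized; phospho-ERK (Thr202/Tyr204) by in-cell immunofluorescence normalized to GAPDH. Percent of DMSO control, IC50 by 4-parameter fit.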

[3] = target: T1, KRas G12D; assay: KRas G12D Surface Plasmon Resonance (SPR) Binding Assay; details: Biacore T200, immobilized biotinylated KRAS protein, 1:1 binding model
Experimental: Briefly, 1 L of 1.05× HBS-Mg buffer (262.5 mM Bioultra Hepes, pH 7.5, 157.5 mM NaCl, 105 mM MgCl2, 0.525 mM TCEP, 0.0305% Brij-35) was prepared and filter sterilized using a 0.22 μm bottle top filter. Approximately 50 mL of 1.05× HBS-Mg buffer was removed and saved for future dilutions. A 50 mL aliquot of DMSO (Sigma Aldrich DMSO Lot. #SHBK2079) was added and continued to stir for 10 minutes, creating the final 1.0× HBS-Mg buffer (250 mM Bioultra Hepes pH 7.5, 150 mM NaCl, 100 mM MgCl2, 0.5mM TCEP, 0.03% Brij-35).
Biacore T200 instrument was primed using 1.0× HBS-Mg buffer before docking a GE Streptavidin (SA) chip and then primed two additional times prior to beginning the immobilization step. All immobilized protein mixtures were created using 3-5mg/mL Biotinylated Avidin-tagged KRAS protein using the following immobilization settings: SA chip type, 1 flow cells per cycle, 720 second contact time, and 5 ul/min flow rate. Normalization of the detector was also performed during the immobilization step using the GE Biallormalize solution.
All compounds were diluted to 10 mM in 100% DMSO prior to being diluted 20× in 1.05× buffer. […] Data evaluation was performed using the Biacore T200 Evaluation software and data fit to 1:1 binding model.
Target sequence in this assay (P01116-2 other isoform, or with tags, fused parts or gaps G12D): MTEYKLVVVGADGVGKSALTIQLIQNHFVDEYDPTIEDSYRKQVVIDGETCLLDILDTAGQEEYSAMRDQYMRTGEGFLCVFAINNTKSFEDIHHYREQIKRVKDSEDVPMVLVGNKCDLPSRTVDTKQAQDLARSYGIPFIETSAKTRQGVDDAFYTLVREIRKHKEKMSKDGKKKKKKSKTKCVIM

Row | SMILES | IC50 [1] | IC50 [2] | Kd [3]
1 | FCC1CCC2(COc3nc(N4C[C@H]5CC[C@@H](C4)N5)c4cnc(-c5cccc6cccc(Cl)c56)c(F)c4n3)CCCN12 (stereo partly drawn) [Example 347, 4-((1R,5S)-3,8-diazabicyclo[3.2.1]octan-3-yl)-7-(8-chloronaphthalen-1-yl)-8-fluoro-2-((3-(fluoromethyl)tetrahydro-1H-pyrrolizin-7a(5H)-yl)methoxy)pyrido[4,3-d]pyrimidine] | 0.0021 µM | 0.459 µM | –
2 | Oc1ccc(SC(F)(F)F)c(-c2ncc3c(N4CC5CCC(C4)N5)nc(OC[C@@]45CCCN4C[C@H](F)C5)nc3c2F)c1 (racemic) [Example 386, 3-(4-((1R,5S)-3,8-diazabicyclo[3.2.1]octan-3-yl)-8-fluoro-2-((2-fluorotetrahydro-1H-pyrrolizin-7a(5H)-yl)methoxy)pyrido[4,3-d]pyrimidin-7-yl)-4-((trifluoromethyl)thio)phenol (racemic, trans)] | 0.002 µM | 0.32 µM | –
3 | CC(C)c1cccc2cc(O)cc(-c3ncc4c(N5CC6CCC(C5)N6)nc(OC[C@@]56CCCN5C[C@H](F)C6)nc4c3F)c12 (racemic) [Example 364, 4-(4-((1R,5S)-3,8-diazabicyclo[3.2.1]octan-3-yl)-8-fluoro-2-((2-fluorotetrahydro-1H-pyrrolizin-7a(5H)-yl)methoxy)pyrido[4,3-d]pyrimidin-7-yl)-5-isopropylnaphthalen-2-ol (racemic, trans)] | 0.0023 µM | 0.322 µM | –
4 | Oc1cc(-c2ncc3c(N4CC5CCC(C4)N5)nc(OC[C@@]45CCCN4C[C@H](F)C5)nc3c2F)c2c(F)cccc2c1 (racemic) [Example 366, 4-(4-((1R,5S)-3,8-diazabicyclo[3.2.1]octan-3-yl)-8-fluoro-2-((2-fluorotetrahydro-1H-pyrrolizin-7a(5H)-yl)methoxy)pyrido[4,3-d]pyrimidin-7-yl)-5-fluoronaphthalen-2-ol (racemic, trans)] | 0.0005 µM | 0.007 µM | –
5 | C#Cc1c(F)ccc2cc(O)cc(-c3ncc4c(N5CC6CCC(C5)N6)nc(OC[C@]56CCCN5[C@@H](COC(=O)N(C)C)CC6)nc4c3F)c12 [Example 440, ((3R,7aR)-7a-(((4-((1R,5S)-3,8-diazabicyclo[3.2.1]octan-3-yl)-7-(8-ethynyl-7-fluoro-3-hydroxynaphthalen-1-yl)-8-fluoropyrido[4,3-d]pyrimidin-2-yl)oxy)methyl)hexahydro-1H-pyrrolizin-3-yl)methyl dimethyl carbamate] | 0.0008 µM | 0.0084 µM | –
6 | [2H]C#Cc1cccc2cccc(-c3ncc4c(N5C[C@H]6CC[C@@H](C5)N6)nc(OCC56CCCN5CCC6)nc4c3F)c12 [Example 278, 4-((1R,5S)-3,8-diazabicyclo[3.2.1]octan-3-yl)-7-(8-(ethynyl-d)naphthalen-1-yl)-8-fluoro-2-((tetrahydro-1H-pyrrolizin-7a(5H)-yl)methoxy)pyrido[4,3-d]pyrimidine] | 0.0007 µM | 0.104 µM | –
7 | COc1cc(-c2ncc3c(N4CC5CCC(C4)N5)nc(OC[C@@]45CCCN4C[C@H](F)C5)nc3c2F)c2ccccc2c1 (racemic) [Example 385, 4-((1R,5S)-3,8-diazabicyclo[3.2.1]octan-3-yl)-8-fluoro-2-((2-fluorotetrahydro-1H-pyrrolizin-7a(5H)-yl)methoxy)-7-(3-methoxynaphthalen-1-yl)pyrido[4,3-d]pyrimidine (racemic, trans)] | 3.08 µM | > 16.7 µM | –
8 | CC(C)(C)c1ccccc1-c1ncc2c(N3CC4CCC(C3)N4)nc(OC[C@@]34CCCN3C[C@H](F)C4)nc2c1F (racemic) [Example 362, 4-((1R,5S)-3,8-diazabicyclo[3.2.1]octan-3-yl)-7-(2-(tert-butyl)phenyl)-8-fluoro-2-((2-fluorotetrahydro-1H-pyrrolizin-7a(5H)-yl)methoxy)pyrido[4,3-d]pyrimidine (racemic, trans)] | 0.106 µM | 10.5 µM | –
9 | Fc1c(-c2ccccc2C2CCC2)ncc2c(N3CC4CCC(C3)N4)nc(OCC34CCCN3C[C@H](F)C4)nc12 (mixture of isomers) [Example 371, 4-((1R,5S)-3,8-diazabicyclo[3.2.1]octan-3-yl)-7-(2-cyclobutylphenyl)-8-fluoro-2-((2-fluorotetrahydro-1H-pyrrolizin-7a(5H)-yl)methoxy)pyrido[4,3-d]pyrimidine (racemic, trans)] | 0.394 µM | – | –
10 | CN1CCC[C@H]1COc1nc(N2C[C@H]3CC[C@@H](C2)N3)c2cnc(-c3cccc4cccc(CCC#N)c34)c(F)c2n1 [Example 117, 3-(8-(4-((1R,5S)-3,8-diazabicyclo[3.2.1]octan-3-yl)-8-fluoro-2-(((S)-1-methylpyrrolidin-2-yl)methoxy)pyrido[4,3-d]pyrimidin-7-yl)naphthalen-1-yl)propanenitrile bis(2,2,2-trifluoroacetate)] | 0.731 µM | – | 1 µM
11 | CO[C@H]1C[C@@H](COc2nc(N3C[C@H]4CC[C@@H](C3)N4)c3cnc(-c4cccc5cccc(Cl)c45)c(F)c3n2)N(C)C1 [Example 149, 4-((1R,5S)-3,8-diazabicyclo[3.2.1]octan-3-yl)-7-(8-chloronaphthalen-1-yl)-8-fluoro-2-(((2S,4S)-4-methoxy-1-methylpyrrolidin-2-yl)methoxy)pyrido[4,3-d]pyrimidine] | 0.87 µM | – | –
12 | OCC(COc1nc(N2C[C@H]3CC[C@@H](C2)N3)c2cnc(-c3cccc4cccc(Cl)c34)c(F)c2n1)c1cccnc1 (stereo partly drawn) [Example 59, 3-((4-((1R,5S)-3,8-diazabicyclo[3.2.1]octan-3-yl)-7-(8-chloronaphthalen-1-yl)-8-fluoropyrido[4,3-d]pyrimidin-2-yl)oxy)-2-(pyridin-3-yl)propan-1-ol] | 0.946 µM | – | 1.12 µM
13 | OCC1CCC2(COc3nc(N4C[C@H]5CC[C@@H](C4)N5)c4cnc(-c5cccc6cccc(Cl)c56)c(F)c4n3)CCCN12 (stereo partly drawn) [Example 135, (7a-(((4-((1R,5S)-3,8-diazabicyclo[3.2.1]octan-3-yl)-7-(8-chloronaphthalen-1-yl)-8-fluoropyrido[4,3-d]pyrimidin-2-yl)oxy)methyl)hexahydro-1H-pyrrolizin-3-yl)methanol] | 0.0021 µM | 4.82 µM | –
14 | OCC(O)CCOc1nc(N2C[C@H]3CC[C@@H](C2)N3)c2cnc(-c3cccc4cccc(Cl)c34)c(F)c2n1 (stereo partly drawn) [Example 57, 4-((4-((1R,5S)-3,8-diazabicyclo[3.2.1]octan-3-yl)-7-(8-chloronaphthalen-1-yl)-8-fluoropyrido[4,3-d]pyrimidin-2-yl)oxy)butane-1,2-diol] | 7.29 µM | – | > 1000 µM
15 | Nc1ccc(Cl)c(F)c1-c1ncc2c(N3CC4CCC(C3)N4)nc(OC[C@@]34CCCN3C[C@H](F)C4)nc2c1F (racemic) [Example 380, 2-(4-((1R,5S)-3,8-diazabicyclo[3.2.1]octan-3-yl)-8-fluoro-2-((2-fluorotetrahydro-1H-pyrrolizin-7a(5H)-yl)methoxy)pyrido[4,3-d]pyrimidin-7-yl)-4-chloro-3-fluoroaniline bis(2,2,2-trifluoroacetate) (racemic, trans)] | 0.0657 µM | > 16.7 µM | –
16 | CSc1cccc2cc(O)cc(-c3ncc4c(N5CC6CCC(C5)N6)nc(OCC56CCCN5C[C@H](F)C6)nc4c3F)c12 (mixture of isomers) [Example 372, 4-(4-((1R,5S)-3,8-diazabicyclo[3.2.1]octan-3-yl)-8-fluoro-2-((2-fluorotetrahydro-1H-pyrrolizin-7a(5H)-yl)methoxy)pyrido[4,3-d]pyrimidin-7-yl)-5-(methylthio)naphthalen-2-ol (racemic, trans)] | 0.0007 µM | 0.0105 µM | –
17 | Fc1c(-c2ccccc2CC(F)(F)F)ncc2c(N3CC4CCC(C3)N4)nc(OC[C@@]34CCCN3C[C@H](F)C4)nc12 (racemic) [Example 383, 4-((1R,5S)-3,8-diazabicyclo[3.2.1]octan-3-yl)-8-fluoro-2-((2-fluorotetrahydro-1H-pyrrolizin-7a(5H)-yl)methoxy)-7-(2-(2,2,2-trifluoroethyl)phenyl)pyrido[4,3-d]pyrimidine (racemic, trans)] | 0.586 µM | – | –
18 | Oc1cccc(F)c1-c1ncc2c(N3CC4CCC(C3)N4)nc(OCC34CCCN3C[C@H](F)C4)nc2c1F (mixture of isomers) [Example 369, 2-(4-((1R,5S)-3,8-diazabicyclo[3.2.1]octan-3-yl)-8-fluoro-2-((2-fluorotetrahydro-1H-pyrrolizin-7a(5H)-yl)methoxy)pyrido[4,3-d]pyrimidin-7-yl)-3-fluorophenol (racemic, trans)] | 0.221 µM | – | –

Source: patent US11453683B1, “KRas G12D inhibitors” (Mirati Therapeutics, Inc., priority 2019, dated 2022)
